From patent publication US20260297092A1, “PYRAZOLOPYRIMIDINE DERIVATIVES AS INHIBITORS OF NLRP3” (Takeda Pharmaceutical Company Limited, priority 2023, published 2026) come the findings set out here.

SMILES strings stand for the structures.

Assay [1] concerns NLRP3 inflammasome (IL-1β production in THP-1 cells). In words: IL-1β TR-FRET Assay (percentage of inhibition at 300 nM, 6 μM or 10 μM). The format is cell-based, human. The note with it: Homo sapiens, LPS priming, ATP activation; for inhibition at 0.3 µM: THP-1, 300 nM, read-out: IL-1β inhibitory rate at 300 nM (%); for inhibition at 6 µM: THP-1, 6 μM, read-out: IL-1β inhibitory rate at 6 μM (%). In a few lines: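 THP-1 cells were differentiated with 25 ng/mL IFN-γ for 24 h, primed with 50 ng/mL LPS in serum-free medium for 24 h, then given compound for 30 min before 20 mM ATP for 2 h. Supernatant IL-1β was measured by HTRF after 16-24 h at room temperature. Inhibition was normalized between DMSO (high) and 3 μM MCC-950 (low).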
On the technique in general: TR-FRET usually uses a lanthanide donor and a delayed reading to cut background.

Assay [2] relates to TNF-α (NF-κB pathway, THP-1 cells). In words: TNF-α Assay (IC50). The format is cell-based, human. The note with it: Homo sapiens, 600 ng/mL LPS, 3 hours. An outline of the steps: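 THP-1 cells differentiated to macrophages with 25 ng/mL IFN for 24 h, plated 40,000/well in serum-free medium, preincubated with compounds 30 min at 37 °C, then stimulated with 600 ng/mL LPS for 3 h. Supernatant TNF-α measured by ELISA; IC50 from four-parameter logistic fit, 100% inhibition defined by TPCA-1.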

Usually IC50 stands for the concentration at which inhibition is half-maximal. A high value points to a need for much substance.

As to `Cc1cc(C2CC2)cc(C)c1-n1cc2c(=O)[nH]c([C@H]3CC3(F)F)nc2n1` [Example 191, 2-(4-cyclopropyl-2,6-dimethylphenyl)-6-(2,2-difluorocyclopropyl)-2,5-dihydro-4H-pyrazolo[3,4-d]pyrimidin-4-one], the inhibition at 0.3 µM in assay [1] came out at 109%. This compound displayed a half-inhibitory concentration (IC50) in assay [2] of over 30 µM.
Regarding `COc1nc2nn(-c3c(F)cc(C4CC4)cc3C(F)F)cc2c(=O)[nH]1` [Example 193, 2-[4-cyclopropyl-2-(difluoromethyl)-6-fluorophenyl]-6-methoxy-2,5-dihydro-4H-pyrazolo[3,4-d]pyrimidin-4-one], the inhibition at 0.3 µM in assay [1] is 101%. The half-maximal inhibitory concentration (IC50) in assay [2] was over 30 µM.
On to `COCCOc1nc2nn(-c3c(C)cc(C4CC4)cc3C)cc2c(=O)[nH]1` [Example 194, 2-(4-cyclopropyl-2,6-dimethylphenyl)-6-(2-methoxyethoxy)-2,5-dihydro-4H-pyrazolo[3,4-d]pyrimidin-4-one], for which, in assay [1], the inhibition at 0.3 µM stood at 100%. Further, in assay [2], the half-maximal inhibitory concentration (IC50) is over 30 µM.
With `CCOc1nc2nn(-c3c(C)cc(OC(F)F)cc3C(F)F)cc2c(=O)[nH]1` [Example 195, 2-[4-(difluoromethoxy)-2-(difluoromethyl)-6-methylphenyl]-6-ethoxy-2,5-dihydro-4H-pyrazolo[3,4-d]pyrimidin-4-one], the inhibition at 0.3 µM in assay [1] came out at 101%. Besides, the IC50 in assay [2] is over 30 µM.
The like results for `Cc1cc(C2CC2)cc(C)c1-n1cc2c(=O)[nH]c(C3CCOCC3)nc2n1` [Example 198, 2-(4-cyclopropyl-2,6-dimethylphenyl)-6-(oxan-4-yl)-2,5-dihydro-4H-pyrazolo[3,4-d]pyrimidin-4-one] were, in that order, 95% and over 30 µM.
For `Cc1ccc(-n2cc3c(=O)[nH]c(OC4CC5(COC5)C4)nc3n2)c(C)c1` [Example 199, 2-(2,4-dimethylphenyl)-6-[(2-oxaspiro[3.3]heptan-6-yl)oxy]-2,5-dihydro-4H-pyrazolo[3,4-d]pyrimidin-4-one], the inhibition at 0.3 µM in assay [1] is 52%. Moreover, the IC50 in assay [2] is over 30 µM.
For the compound `CO[C@H](C)COc1nc2nn(-c3c(F)cc(C4CC4)cc3C(F)F)cc2c(=O)[nH]1` [Example 200, 2-[4-cyclopropyl-2-(difluoromethyl)-6-fluorophenyl]-6-[(2R)-2-methoxypropoxy]-2,5-dihydro-4H-pyrazolo[3,4-d]pyrimidin-4-one], in assay [1], the inhibition at 0.3 µM was determined as 98%. The compound further had an IC50 in assay [2] of over 30 µM.
As to `Cc1cc(C2CC2)cc(C)c1-n1cc2c(=O)[nH]c(COC(F)(F)F)nc2n1` [Example 202, 2-(4-cyclopropyl-2,6-dimethylphenyl)-6-[(trifluoro-methoxy)methyl]-2,5-dihydro-4H-pyrazolo[3,4-d]pyrimidin-4-one], the inhibition at 0.3 µM in assay [1] turned out to be 97%. This compound also showed a half-inhibitory concentration (IC50) in assay [2] of over 30 µM.
The like results for `CO[C@@H](C)COc1nc2nn(-c3c(F)cc(C4CC4)cc3C(F)F)cc2c(=O)[nH]1` [Example 203, 2-[4-cyclopropyl-2-(difluoromethyl)-6-fluorophenyl]-6-[(2S)-2-methoxypropoxy]-2,5-dihydro-4H-pyrazolo[3,4-d]pyrimidin-4-one] were, in that order, 99% and over 30 µM.
With `COc1nc2nn(-c3c(F)cc(C4(F)CC4)cc3Br)cc2c(=O)[nH]1` [Example 204, 2-[2-bromo-6-fluoro-4-(1-fluorocyclopropyl)phenyl]-6-methoxy-2,5-dihydro-4H-pyrazolo[3,4-d]pyrimidin-4-one], the inhibition at 0.3 µM in assay [1] was found to be 98%. Also, in assay [2], the IC50 is over 30 µM.
In the case of `COC[C@H](C)Oc1nc2nn(-c3c(F)cc(C4CC4)cc3C(F)F)cc2c(=O)[nH]1` [Example 205, 2-[4-cyclopropyl-2-(difluoromethyl)-6-fluorophenyl]-6-{[(2S)-1-methoxypropan-2-yl]oxy}-2,5-dihydro-4H-pyrazolo[3,4-d]pyrimidin-4-one], the inhibition at 0.3 µM in assay [1] turned out to be 95%. In assay [2], this compound yielded a half-maximal inhibitory concentration (IC50) of over 30 µM.
In the case of `COC[C@@H](C)Oc1nc2nn(-c3c(F)cc(C4CC4)cc3C(F)F)cc2c(=O)[nH]1` [Example 207, 2-[4-cyclopropyl-2-(difluoromethyl)-6-fluoro-phenyl]-6-{[(2R)-1-methoxypropan-2-yl]oxy}-2,5-dihydro-4H-pyrazolo[3,4-d]pyrimidin-4-one], the inhibition at 0.3 µM in assay [1] was 98%. For the same compound, in assay [2], the half-inhibitory concentration (IC50) is over 30 µM.
For `COc1nc2nn(-c3c(C)cc(C4(F)CC4)cc3F)cc2c(=O)[nH]1` [Example 208, 2-[2-fluoro-4-(1-fluorocyclopropyl)-6-methylphenyl]-6-methoxy-2,5-dihydro-4H-pyrazolo[3,4-d]pyrimidin-4-one], in assay [1], the inhibition at 0.3 µM was found to be 102%. This compound displayed an IC50 in assay [2] of over 30 µM.
Consider `Cc1cc(C2CC2)cc(C)c1-n1cc2c(=O)[nH]c(CC(F)(F)F)nc2n1` [Example 211, 2-(4-cyclopropyl-2,6-dimethylphenyl)-6-(2,2,2-trifluoroethyl)-2,5-dihydro-4H-pyrazolo[3,4-d]pyrimidin-4-one], for which, in assay [1], the inhibition at 0.3 µM amounted to 107%. The compound further had a 50% inhibitory concentration (IC50) in assay [2] of over 30 µM.
In the case of `CCOc1nc2nn(-c3c(C)cc(Br)cc3C(F)F)cc2c(=O)[nH]1` [Example 213, 2-[4-bromo-2-(difluoromethyl)-6-methylphenyl]-6-ethoxy-2,5-dihydro-4H-pyrazolo[3,4-d]pyrimidin-4-one], in assay [1], the inhibition at 0.3 µM worked out at 104%. Besides, in assay [2], the IC50 was over 30 µM.
On the same counts, the results for `COc1nc2nn(-c3c(C)cc(Br)cc3C(F)F)cc2c(=O)[nH]1` [Example 214, 2-[4-bromo-2-(difluoromethyl)-6-methylphenyl]-6-methoxy-2,5-dihydro-4H-pyrazolo[3,4-d]pyrimidin-4-one] are 107% and over 30 µM.
For `COCCOc1nc2nn(-c3c(C)cc(Br)cc3C(F)F)cc2c(=O)[nH]1` [Example 215, 2-[4-bromo-2-(difluoromethyl)-6-methylphenyl]-6-(2-methoxyethoxy)-2,5-dihydro-4H-pyrazolo[3,4-d]pyrimidin-4-one], the inhibition at 0.3 µM in assay [1] was found to be 105%. In assay [2], this compound showed a 50% inhibitory concentration (IC50) of over 30 µM.
As for `CCOc1nc2nn(-c3c(C)cc(C4CC4)cc3C(F)F)cc2c(=O)[nH]1` [Example 216, 2-[4-cyclopropyl-2-(difluoromethyl)-6-methylphenyl]-6-ethoxy-2,5-dihydro-4H-pyrazo lo[3,4-d]pyrimidin-4-one], the inhibition at 0.3 µM in assay [1] was found to be 104%. This compound also registered an IC50 in assay [2] of over 30 µM.
Take `Cc1cc(C2CC2)cc(C)c1-n1cc2c(=O)[nH]c(-c3cc4n(n3)CCOC4)nc2n1` [Example 218, 2-(4-cyclopropyl-2,6-dimethylphenyl)-6-(6,7-dihydro-4H-pyrazolo[5,1-c][1,4]oxazin-2-yl)-2,5-dihydro-4H-pyrazolo[3,4-d]pyrimidin-4-one]: the inhibition at 0.3 µM in assay [1] came out at 106%. The IC50 in assay [2] was over 30 µM.
Turning to `CCOc1nc2nn(-c3c(C)cc(C4CC4)cc3OC(F)F)cc2c(=O)[nH]1` [Example 222, 2-[4-cyclopropyl-2-(difluoromethoxy)-6-methylphenyl]-6-ethoxy-2,5-dihydro-4H-pyrazolo[3,4-d]pyrimidin-4-one], the inhibition at 0.3 µM in assay [1] amounted to 98%. This compound had an IC50 in assay [2] of over 30 µM.
The like results for `Cc1cc(C2CC2)cc(C)c1-n1cc2c(=O)[nH]c(COC(F)F)nc2n1` [Example 224, 2-(4-cyclopropyl-2,6-dimethylphenyl)-6-[(difluoromethoxy)methyl]-2,5-dihydro-4H-pyrazolo[3,4-d]pyrimidin-4-one] were, in that order, 104% and over 30 µM.
As for `CCOc1nc2nn(-c3c(C)cc(OC(F)F)nc3C)cc2c(=O)[nH]1` [Example 226, 2-[6-(difluoromethoxy)-2,4-dimethylpyridin-3-yl]-6-ethoxy-2,5-dihydro-4H-pyrazolo[3,4-d]pyrimidin-4-one], the inhibition at 6 µM in assay [1] worked out at 106%. The compound further came in with a half-inhibitory concentration (IC50) in assay [2] of over 30 µM.
On to `Cc1cc(C2CC2)cc(C)c1-n1cc2c(=O)[nH]c(-c3cn(C)nn3)nc2n1` [Example 229, 2-(4-cyclopropyl-2,6-dimethylphenyl)-6-(1-methyl-1H-1,2,3-triazol-4-yl)-2,5-dihydro-4H-pyrazolo[3,4-d]pyrimidin-4-one], for which the inhibition at 0.3 µM in assay [1] turned out to be 99%. The same compound came in with an IC50 in assay [2] of over 30 µM.
Turning to `COc1nc2nn(-c3c(C)cc(C4CC4)cc3CC(F)(F)F)cc2c(=O)[nH]1` [Example 230, 2-[4-cyclopropyl-2-methyl-6-(2,2,2-trifluoroethyl)phenyl]-6-methoxy-2,5-dihydro-4H-pyrazolo[3,4-d]pyrimidin-4-one], the inhibition at 6 µM in assay [1] was found to be 93%. Also, the IC50 in assay [2] was over 30 µM.
Consider `COCCOc1nc2nn(-c3c(C)cc(C4CC4)cc3CC(F)(F)F)cc2c(=O)[nH]1` [Example 231, 2-[4-cyclopropyl-2-methyl-6-(2,2,2-trifluoroethyl)phenyl]-6-(2-methoxyethoxy)-2,5-dihydro-4H-pyrazolo[3,4-d]pyrimidin-4-one], for which, in assay [1], the inhibition at 6 µM was found to be 90%. Further, the IC50 in assay [2] is over 30 µM.
Regarding `COc1nc2nn(-c3c(C)cc(C4(F)CC4)cc3C)cc2c(=O)[nH]1` [Example 235, 2-[4-(1-fluorocyclopropyl)-2,6-dimethylphenyl]-6-methoxy-2,5-dihydro-4H-pyrazolo[3,4-d]pyrimidin-4-one], the inhibition at 6 µM in assay [1] is 105%. This compound also showed an IC50 in assay [2] of over 30 µM.
For the compound `CCc1nc2nn(-c3c(C)cc(C4CC4)cc3C)cc2c(=O)[nH]1` [Example 241, 2-(4-cyclopropyl-2,6-dimethylphenyl)-6-ethyl-2,5-dihydro-4H-pyrazolo[3,4-d]pyrimidin-4-one], the inhibition at 6 µM in assay [1] came to 101%. Further, the half-maximal inhibitory concentration (IC50) in assay [2] is over 30 µM.
